The supplement of paper PMC10307832

Columns and labels:
Assay in all cases: relative viability (nuclei count vs DMSO), 5 days (fraction); higher = more cells survive
[1] = compound: C1=CC=C(C(=C1)C2=CC=C(C=C2)C3=CSC4=C3C(=C(C(=O)N4)C#N)O)O + Cc1nc(Nc2ncc(C(=O)Nc3c(C)cccc3Cl)s2)cc(N2CCN(CCO)CC2)n1 [Dasatinib] (partner 0.075 µM)
Procedure, shortened: (§1)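 Lung cancer cell lines were pin-tool dosed in 1536-well plates on the day after seeding, with either a lone drug or a fixed anchor-drug dose plus five library-drug doses (not always all listed) in √10 steps. Nuclei were counted on 4× images after 5 days. Relative viability is the ratio of treated-well to vehicle-well nuclei counts, with each value a median of duplicate plates.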

[2] = compound: C1=CC=C(C(=C1)C2=CC=C(C=C2)C3=CSC4=C3C(=C(C(=O)N4)C#N)O)O + NC(=O)Nc1cc(-c2cccc(F)c2)sc1C(=O)N[C@H]1CCCNC1 [AZD7762] (partner 0.2 µM)
Procedure, shortened: as §1

[3] = compound: CC1=CN2C(=O)C=C(N=C2C(=C1)C(C)NC3=CC=CC=C3)N4CCOCC4 [TGX 221] + NC(=O)Nc1cc(-c2cccc(F)c2)sc1C(=O)N[C@H]1CCCNC1 [AZD7762] (partner 0.2 µM)
Procedure, shortened: as §1

[4] = compound: O=C(CCCCCCNC(=O)c1cnc(N(c2ccccc2)c2ccccc2)nc1)NO [Ricolinostat] + O=C(c1cc(Cc2n[nH]c(=O)c3ccccc23)ccc1F)N1CCN(C(=O)C2CC2)CC1 [Olaparib] (partner 8 µM)
Procedure, shortened: as §1

Row | Cell Line | relative viability ([1]; first compound 0.08 µM) | relative viability ([1]; first compound 0.253 µM) | relative viability ([1]; first compound 0.8 µM) | relative viability ([1]; first compound 2.53 µM) | relative viability ([1]; first compound 8 µM) | relative viability ([2]; first compound 0.08 µM) | relative viability ([2]; first compound 0.253 µM) | relative viability ([2]; first compound 0.8 µM) | relative viability ([2]; first compound 2.53 µM) | relative viability ([2]; first compound 8 µM) | relative viability ([3]; first compound 0.08 µM) | relative viability ([3]; first compound 0.253 µM) | relative viability ([3]; first compound 0.8 µM) | relative viability ([3]; first compound 2.53 µM) | relative viability ([3]; first compound 8 µM) | relative viability ([4]; first compound 0.08 µM) | relative viability ([4]; first compound 0.253 µM) | relative viability ([4]; first compound 0.8 µM) | relative viability ([4]; first compound 2.53 µM)
1 | HCC-827 | 0.315 | 0.469 | 0.313 | 0.403 | 0.224 | 0.233 | 0.192 | 0.199 | 0.231 | 0.176 | 0.197 | 0.269 | 0.233 | 0.201 | 0.148 | 0.553 | 0.634 | 0.593 | 0.617
2 | HOP-62 | 0.528 | 0.573 | 0.685 | 0.67 | 0.501 | 0.533 | 0.548 | 0.376 | 0.704 | 0.474 | 0.424 | 0.545 | 0.661 | 0.788 | 0.641 | 0.516 | 0.408 | 0.31 | 0.394
3 | IA-LM | – | – | – | – | – | – | – | – | – | – | – | – | – | – | – | 0.728 | 0.92 | 0.737 | 0.586
4 | LC-2-ad | 0.367 | 0.545 | 0.426 | 0.694 | 0.475 | 0.873 | 0.798 | 0.871 | 0.872 | 0.824 | 0.832 | 0.823 | 0.832 | 0.777 | 0.736 | 0.699 | 0.639 | 0.665 | 0.285
5 | LCLC-97TM1 | 0.767 | 0.979 | 0.98 | 0.936 | 0.806 | 0.225 | 0.259 | 0.258 | 0.278 | 0.148 | 0.139 | 0.273 | 0.247 | 0.128 | 0.277 | 0.355 | 0.446 | 0.486 | 0.341
6 | LCLC-103H | 0.33 | 0.415 | 0.458 | 0.463 | 0.404 | 0.737 | 0.731 | 0.803 | 0.728 | 0.743 | 0.789 | 0.762 | 0.771 | 0.707 | 0.731 | 0.675 | 0.655 | 0.771 | 0.743
7 | LK-2 | – | 0.269 | 0.276 | 0.28 | 0.253 | 0.309 | 0.522 | 0.277 | 0.517 | 0.274 | 0.377 | 0.434 | 0.436 | 0.395 | 0.521 | 0.623 | 0.687 | 0.691 | 0.575
8 | LOU-NH91 | 0.493 | 0.589 | 0.506 | 0.542 | 0.489 | 0.79 | 0.804 | 0.745 | 0.733 | 0.701 | 0.73 | 0.758 | 0.746 | 0.789 | 0.714 | – | 0.883 | 0.905 | 0.858
9 | LU99A | 0.528 | 0.608 | 0.61 | 0.563 | 0.442 | 0.331 | 0.293 | 0.335 | 0.391 | 0.275 | 0.263 | 0.387 | 0.391 | 0.402 | 0.305 | 0.281 | 0.255 | 0.206 | 0.175
10 | LXF-289 | 0.185 | 0.188 | 0.223 | 0.23 | 0.231 | 1.06 | 1.09 | 1.15 | 1.2 | 0.925 | 1.12 | 1.12 | 1.06 | 1.03 | 1.08 | 1.04 | 1.12 | 1.04 | 1.01
11 | NCI-H23 | 0.654 | 0.677 | 0.755 | 1.01 | 0.604 | 0.232 | 0.168 | 0.239 | 0.229 | 0.229 | 0.277 | 0.213 | 0.269 | 0.217 | 0.201 | 0.351 | 0.278 | 0.27 | 0.275
12 | NCI-H520 | 0.193 | 0.179 | 0.258 | 0.202 | 0.212 | – | – | – | – | – | – | – | – | – | – | – | 0.305 | 0.343 | 0.271
13 | NCI-H661 | 0.771 | 0.916 | 1.07 | 0.834 | 0.801 | – | – | – | – | – | – | – | – | – | – | 0.654 | 0.75 | 0.706 | 0.558
14 | NCI-H1299 | – | – | – | – | – | – | – | – | – | – | – | – | – | – | – | 0.95 | 0.914 | 0.942 | 0.91
15 | NCI-H1563 | 0.469 | 0.553 | 0.529 | 0.439 | 0.477 | – | – | – | – | – | – | – | – | – | – | – | – | – | –
16 | NCI-H1623 | 0.484 | 0.548 | 0.496 | 0.603 | 0.546 | – | – | – | – | – | – | – | – | – | – | – | – | – | –
17 | NCI-H1648 | – | – | – | – | – | – | 0.676 | 0.734 | 0.689 | 0.608 | – | 0.784 | 0.793 | 0.628 | 0.672 | – | 0.817 | 0.407 | 0.4
18 | NCI-H1650 | 0.253 | 0.393 | 0.349 | 0.322 | 0.318 | – | – | – | – | – | – | – | – | – | – | 0.767 | 0.632 | 0.823 | 0.579
19 | NCI-H1703 | – | – | – | – | – | 0.113 | 0.147 | 0.111 | 0.15 | 0.148 | 0.129 | 0.12 | 0.12 | 0.116 | 0.146 | – | 0.426 | 0.332 | 0.458
20 | NCI-H2009 | 0.322 | 0.267 | 0.322 | 0.302 | 0.29 | – | – | – | – | – | – | – | – | – | – | 0.67 | 0.663 | 0.623 | 0.457
21 | NCI-H2023 | 0.444 | 0.521 | 0.648 | 0.55 | 0.433 | – | – | – | – | – | – | – | – | – | – | 0.485 | 0.447 | 0.407 | 0.239
22 | NCI-H2228 | 0.511 | 0.476 | 0.567 | 0.606 | 0.475 | – | – | – | – | – | – | – | – | – | – | 0.647 | 0.548 | 0.476 | 0.45
23 | SK-LU-1 | 0.172 | 0.198 | 0.161 | 0.198 | 0.196 | – | – | – | – | – | – | – | – | – | – | 0.371 | 0.478 | 0.362 | 0.382
24 | SK-MES-1 | 0.391 | 0.334 | 0.309 | 0.274 | 0.359 | – | – | – | – | – | – | – | – | – | – | 0.713 | 0.712 | 0.691 | 0.681
25 | SW 1573 | 0.498 | 0.618 | 0.662 | 0.666 | 0.369 | – | – | – | – | – | – | – | – | – | – | 0.436 | 0.508 | 0.534 | 0.404
26 | UMC-11 | 0.328 | 0.432 | 0.573 | 0.524 | 0.374 | – | – | – | – | – | – | – | – | – | – | 0.345 | 0.339 | 0.323 | 0.198
